In ChEMBL document CHEMBL3885881, “DrugMatrix”:

Species: Rattus norvegicus
Experiment: DrugMatrix - Regimen: Daily Repeat
Format: toxicity, organism-based, Sprague-Dawley
Design: regimen Daily Repeat, gender Male, age 6-8 weeks
Settings: in vivo, po, route oral GAVAGE, vehicle .5 % CMC; for ABSOLUTE BASOPHIL / ABSOLUTE EOSINOPHIL / ABSOLUTE LYMPHOCYTE / ABSOLUTE MONOCYTE / ABSOLUTE SEGMENTED NEUTROPHIL / BASOPHIL / EOSINOPHIL / ERYTHROCYTE COUNT / HEMATOCRIT / HEMOGLOBIN / LEUKOCYTE COUNT / LYMPHOCYTE / MEAN CORPUSCULAR HEMOGLOBIN / MEAN CORPUSCULAR HEMOGLOBIN CONCENTRATION / MEAN CORPUSCULAR VOLUME / MONOCYTE / NEUTROPHIL / NUCLEATED RED BLOOD CELLS / PLATELET COUNT: tissue Blood; for ALANINE AMINOTRANSFERASE / ALBUMIN / ALKALINE PHOSPHATASE / ASPARTATE AMINOTRANSFERASE / BLOOD UREA NITROGEN / CARBON DIOXIDE / CHLORIDE / CHOLESTEROL / CREATINE PHOSPHOKINASE / CREATININE / GLUCOSE / LACTATE DEHYDROGENASE / LIPASE / PHOSPHORUS / POTASSIUM / SODIUM / TOTAL BILIRUBIN / TOTAL PROTEIN / URIC ACID: tissue Plasma
[1] = 0 mg/kg, 72 h, dose level Control, time 3 day
[2] = 0 mg/kg, 120 h, dose level Control, time 5 day
[3] = 75 mg/kg, 72 h, dose level High, time 3 day

Cc1ccc(/N=C/N(C)/C=N/c2ccc(C)cc2C)c(C)c1 [AMITRAZ]
ABSOLUTE BASOPHIL [1]: 0 CELLS/uL | ABSOLUTE EOSINOPHIL [1]: 0 CELLS/uL | ABSOLUTE LYMPHOCYTE [1]: 12269.67 CELLS/uL | ABSOLUTE MONOCYTE [1]: 160.33 CELLS/uL | ABSOLUTE SEGMENTED NEUTROPHIL [1]: 970 CELLS/uL | BASOPHIL [1]: 0% | EOSINOPHIL [1]: 0% | ERYTHROCYTE COUNT [1]: 5.76 x10E6/uL | HEMATOCRIT [1]: 36.57% | HEMOGLOBIN [1]: 14.22 G/DL | LEUKOCYTE COUNT [1]: 13.4 x10E3/uL | LYMPHOCYTE [1]: 91.67% | MEAN CORPUSCULAR HEMOGLOBIN [1]: 24.67 pg | MEAN CORPUSCULAR HEMOGLOBIN CONCENTRATION [1]: 38.85 G/DL | MEAN CORPUSCULAR VOLUME [1]: 63.52 fL | MONOCYTE [1]: 1.17% | NEUTROPHIL [1]: 7.17% | NUCLEATED RED BLOOD CELLS [1]: 0.33 /100WBC | PLATELET COUNT [1]: 1250.83 x10E3/uL | ALANINE AMINOTRANSFERASE [1]: 49.17 u/L | ALBUMIN [1]: 4.33 G/DL | ALKALINE PHOSPHATASE [1]: 378.5 u/L | ASPARTATE AMINOTRANSFERASE [1]: 82.17 u/L | BLOOD UREA NITROGEN [1]: 15 mg/dL | CARBON DIOXIDE [1]: 34.33 mmol/L | CHLORIDE [1]: 99.17 MEQ/L | CHOLESTEROL [1]: 71.17 mg/dL | CREATINE PHOSPHOKINASE [1]: 258.67 u/L | CREATININE [1]: 0.18 mg/dL | GLUCOSE [1]: 142.67 mg/dL | LACTATE DEHYDROGENASE [1]: 154.33 u/L | LIPASE [1]: 9 u/L | PHOSPHORUS [1]: 11.67 mg/dL | POTASSIUM [1]: 7.13 MEQ/L | SODIUM [1]: 142.22 MEQ/L | TOTAL BILIRUBIN [1]: 0.18 mg/dL | TOTAL PROTEIN [1]: 5.77 G/DL | URIC ACID [1]: 1.55 mg/dL | ABSOLUTE BASOPHIL [2]: 0 CELLS/uL | ABSOLUTE EOSINOPHIL [2]: 23.33 CELLS/uL | ABSOLUTE LYMPHOCYTE [2]: 14943.67 CELLS/uL | ABSOLUTE MONOCYTE [2]: 32 CELLS/uL | ABSOLUTE SEGMENTED NEUTROPHIL [2]: 1084.33 CELLS/uL | BASOPHIL [2]: 0% | EOSINOPHIL [2]: 0.17% | ERYTHROCYTE COUNT [2]: 5.71 x10E6/uL | HEMATOCRIT [2]: 35.28% | HEMOGLOBIN [2]: 14.27 G/DL | LEUKOCYTE COUNT [2]: 16.08 x10E3/uL | LYMPHOCYTE [2]: 93% | MEAN CORPUSCULAR HEMOGLOBIN [2]: 25.02 pg | MEAN CORPUSCULAR HEMOGLOBIN CONCENTRATION [2]: 40.43 G/DL | MEAN CORPUSCULAR VOLUME [2]: 61.82 fL | MONOCYTE [2]: 0.17% | NEUTROPHIL [2]: 6.67% | NUCLEATED RED BLOOD CELLS [2]: 0.33 /100WBC | PLATELET COUNT [2]: 1274 x10E3/uL | ALANINE AMINOTRANSFERASE [2]: 54.17 u/L | ALBUMIN [2]: 4.22 G/DL | ALKALINE PHOSPHATASE [2]: 373.17 u/L | ASPARTATE AMINOTRANSFERASE [2]: 81.83 u/L | BLOOD UREA NITROGEN [2]: 16.67 mg/dL | CARBON DIOXIDE [2]: 30.33 mmol/L | CHLORIDE [2]: 99 MEQ/L | CHOLESTEROL [2]: 71 mg/dL | CREATINE PHOSPHOKINASE [2]: 273.5 u/L | CREATININE [2]: 0.22 mg/dL | GLUCOSE [2]: 141.83 mg/dL | LACTATE DEHYDROGENASE [2]: 153.67 u/L | LIPASE [2]: 10.33 u/L | PHOSPHORUS [2]: 11.38 mg/dL | POTASSIUM [2]: 7.08 MEQ/L | SODIUM [2]: 142.75 MEQ/L | TOTAL BILIRUBIN [2]: 0.18 mg/dL | TOTAL PROTEIN [2]: 6.1 G/DL | URIC ACID [2]: 1.67 mg/dL | ABSOLUTE BASOPHIL [3]: 0 CELLS/uL | ABSOLUTE EOSINOPHIL [3]: 0 CELLS/uL | ABSOLUTE LYMPHOCYTE [3]: 12442 CELLS/uL | ABSOLUTE MONOCYTE [3]: 223 CELLS/uL | ABSOLUTE SEGMENTED NEUTROPHIL [3]: 868.33 CELLS/uL | BASOPHIL [3]: 0% | EOSINOPHIL [3]: 0% | ERYTHROCYTE COUNT [3]: 6.64 x10E6/uL | HEMATOCRIT [3]: 42% | HEMOGLOBIN [3]: 16.13 G/DL | LEUKOCYTE COUNT [3]: 13.53 x10E3/uL | LYMPHOCYTE [3]: 92.33% | MEAN CORPUSCULAR HEMOGLOBIN [3]: 24.27 pg | MEAN CORPUSCULAR HEMOGLOBIN CONCENTRATION [3]: 38.4 G/DL | MEAN CORPUSCULAR VOLUME [3]: 63.23 fL | MONOCYTE [3]: 1.67% | NEUTROPHIL [3]: 6% | NUCLEATED RED BLOOD CELLS [3]: 0 /100WBC | PLATELET COUNT [3]: 1347.33 x10E3/uL | ALANINE AMINOTRANSFERASE [3]: 35.67 u/L | ALBUMIN [3]: 3.93 G/DL | ALKALINE PHOSPHATASE [3]: 354 u/L | ASPARTATE AMINOTRANSFERASE [3]: 84.33 u/L | BLOOD UREA NITROGEN [3]: 20 mg/dL | CARBON DIOXIDE [3]: 34.67 mmol/L | CHLORIDE [3]: 101.67 MEQ/L | CHOLESTEROL [3]: 49 mg/dL | CREATINE PHOSPHOKINASE [3]: 285.33 u/L | CREATININE [3]: 0.3 mg/dL | GLUCOSE [3]: 211 mg/dL | LACTATE DEHYDROGENASE [3]: 230 u/L | LIPASE [3]: 8.33 u/L | PHOSPHORUS [3]: 11.13 mg/dL | POTASSIUM [3]: 6.26 MEQ/L | SODIUM [3]: 146.5 MEQ/L | TOTAL BILIRUBIN [3]: 0.23 mg/dL | TOTAL PROTEIN [3]: 5.2 G/DL | URIC ACID [3]: 1.83 mg/dL
